Among the test systems are DMS 114 small cell lung; DMS 273 small cell lung; HOP-18 NSCLC; KM20L2 colon; M19-MEL melanoma; RXF-631 renal; XF 498 CNS; MDA-N; DLD-1 colon; P388 leukemia; P388/ADR leukemia.
What all share (test): NCI tumour cell line growth inhibition, 48 h

Several values for one entry are separate records, joined by “and”; a condition that tells them apart may be missing. Identical values can stand only once.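 Results reflect a 48-hour exposure of cells in 96-well plates to compound at five concentrations. Abbreviation: GI50, concentration required for 50% inhibition of growth. Definition used: TGI = concentration required for complete inhibition of growth.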

As to `COc1cc2ccc(CC(N)=O)cc2cc1OC`, the TGI in the assay with DMS 114 small cell lung, in the assay with DMS 273 small cell lung, in the assay on HOP-18 NSCLC, in the assay on KM20L2 colon, in the assay with M19-MEL melanoma and in the assay on RXF-631 renal was over 100 µM throughout. For the same compound, the TGI with XF 498 CNS was over 100 µM.
For the compound `CCCC#CCOC(=O)c1cc([N+](=O)[O-])cc([N+](=O)[O-])c1`, the TGI in the assay on MDA-N was over 100 µM.
The same measure, in the same setting: with `Cc1ccc(C)c2c(N=Nc3ccccc3[N+](=O)[O-])c(O)[nH]c12` the figure was over 100 µM.
For `Cc1cc2c(=O)cc(-c3ccc(F)cc3)oc2c(C(=O)O)c1C`, the TGI in the assay with DLD-1 colon, in the assay with DMS 114 small cell lung, in the assay with DMS 273 small cell lung, in the assay on HOP-18 NSCLC, with KM20L2 colon and with M19-MEL melanoma was over 100 µM in each case. The TGI in the assay on RXF-631 renal and with XF 498 CNS was over 100 µM each time.
In the case of `O=C1N[C@H]2[C@H](O)[C@H](O)[C@@H](O)[C@H](O)[C@@H]2c2cc3c(c(O)c21)OCO3`, the GI50 with DLD-1 colon is 0.282 µM and 1.94 µM; in the assay with DMS 114 small cell lung, 0.241 µM and 0.604 µM; in the assay with DMS 273 small cell lung it was 3.09 µM; in the assay with HOP-18 NSCLC, 0.377 µM and 1.99 µM; with KM20L2 colon, 0.35 µM and 1.76 µM; in the assay on M19-MEL melanoma, 0.276 µM and 0.463 µM. Also, the GI50 with MDA-N is 0.025 µM; in the assay with RXF-631 renal, 0.288 µM; in the assay with XF 498 CNS it was 0.25 µM and 1.24 µM. Further, the TGI in the assay on DLD-1 colon is 0.422 µM; in the assay with DMS 273 small cell lung, 0.466 µM; in the assay on HOP-18 NSCLC, 0.653 µM; in the assay on KM20L2 colon, 3.06 µM; in the assay on MDA-N, 0.185 µM and 0.128 µM; in the assay with P388 leukemia it was 0.164 µM. In addition, the TGI in the assay on P388/ADR leukemia was 0.21 µM; in the assay on RXF-631 renal, 4.33 µM.
Consider `O=C(Sc1sc(=S)sc1SC(=O)c1ccccc1)c1ccccc1`, for which the TGI is over 100 µM in the assay with DMS 114 small cell lung; over 100 µM with DMS 273 small cell lung; over 100 µM in the assay on HOP-18 NSCLC; over 100 µM with KM20L2 colon; 51 µM in the assay with M19-MEL melanoma; over 100 µM in the assay with XF 498 CNS.
As for `CCOP(=O)(CC(=O)C1=C(O)C(CCCCNC(=O)OC(C)(C)C)N(Cc2ccccc2)C1=O)OCC` (stereo unspecified), the TGI in the assay on DLD-1 colon, in the assay on DMS 114 small cell lung, in the assay on DMS 273 small cell lung, in the assay with HOP-18 NSCLC, with KM20L2 colon and in the assay on M19-MEL melanoma was over 100 µM in each case.
As to `CCN(CC)CCC(=O)/C=C/c1ccc(C)cc1`, the TGI amounted to 21.9 µM in the assay with DLD-1 colon; 24.4 µM with DMS 114 small cell lung; 25.5 µM in the assay with DMS 273 small cell lung; 31.5 µM in the assay on HOP-18 NSCLC; 30 µM in the assay on KM20L2 colon; 25.4 µM in the assay on M19-MEL melanoma. Also, the results for the TGI in the assay with RXF-631 renal and in the assay on XF 498 CNS were 35.1 µM and 25.1 µM, respectively.
In turn, `CC(=O)NC1=C(Sc2ccc(Cl)cc2)C(=O)c2ccccc2C1=O` had a TGI with MDA-N of 3.17 µM.
Consider `COc1cc2c(cc1OC)[C@@H]([C@H](O)c1ccccc1)NCC2`, for which the TGI in the assay on DLD-1 colon, in the assay with DMS 114 small cell lung, in the assay on DMS 273 small cell lung, with HOP-18 NSCLC, in the assay with KM20L2 colon and in the assay on M19-MEL melanoma was over 100 µM each time. The TGI in the assay on RXF-631 renal and with XF 498 CNS was over 100 µM throughout.
With `C/C=C1\CCC2c3[nH]c4ccccc4c3CCN2C1` (stereo unspecified), the TGI in the assay on DLD-1 colon, with DMS 114 small cell lung, in the assay with DMS 273 small cell lung, in the assay with KM20L2 colon, with M19-MEL melanoma and in the assay with XF 498 CNS was over 100 µM throughout.
With `CCCCCCCCCCCCCCNCC(OCC)OCC`, the TGI in the assay on DLD-1 colon turned out to be 28.3 µM; in the assay on DMS 114 small cell lung, 25.7 µM; with HOP-18 NSCLC, 30.3 µM; in the assay with KM20L2 colon, 24.9 µM; in the assay with M19-MEL melanoma, 30.5 µM; with XF 498 CNS, 27.4 µM.
Turning to `CN1C(=O)C(=CN(C)c2ccccc2)C(=O)N(C)C1=O`, the TGI with DLD-1 colon, in the assay on DMS 114 small cell lung, in the assay with DMS 273 small cell lung, with HOP-18 NSCLC, in the assay on KM20L2 colon and in the assay on M19-MEL melanoma was over 100 µM each time. Further, the TGI in the assay on XF 498 CNS was over 100 µM.
For `NCCN1C(=O)c2ccccc2C1(O)c1ccc(Cl)cc1` (stereo unspecified), the TGI in the assay with MDA-N is 32.7 µM.
Still for that read-out and setting: then `Cc1cc2c(=O)[nH]c(N)nc2nc1C`, with over 100 µM; and `C#CC(=O)OCC#CCOC(=O)C#C`, with over 100 µM; and `CCc1ncnc2cc(OCC3CO3)c(OC)cc12` (stereo unspecified), with 21.8 µM.
`COC(=O)C(=O)C(CC(=O)Nc1cccc(C(F)(F)F)c1)C(=O)OC` (stereo unspecified): the TGI with DLD-1 colon, in the assay on DMS 114 small cell lung, with KM20L2 colon and in the assay with M19-MEL melanoma was over 100 µM throughout.
`COc1cc2c(cc1O)C(c1cc(O)c(O)c(OC)c1)C(O)(C(=O)O)C(CO)C2O` (stereo unspecified): the TGI in the assay with MDA-N worked out at 30.9 µM.
The same measure, in the same setting: then `NC(CO)C(=O)NCC(=O)O` (stereo unspecified), with over 100 µM.
Same read-out and setting: with `Nc1nc(-c2cc(-c3cccc4ccccc34)nc(N)n2)cc(-c2cccc3ccccc23)n1` the figure was over 100 µM.
For `O=C(CC1C(=O)Nc2ccccc2S1(=O)=O)Nc1cccc(Cl)c1` (stereo unspecified), the TGI was determined as 32.7 µM in the assay with DLD-1 colon; 30.6 µM in the assay with DMS 114 small cell lung; 29.4 µM in the assay on DMS 273 small cell lung; 42.3 µM in the assay with KM20L2 colon; 34.8 µM in the assay with M19-MEL melanoma; 45.3 µM with RXF-631 renal. Moreover, the TGI in the assay with XF 498 CNS is 41.5 µM.
As to `CCN(CC)CCCNc1[nH]ncc2c(C)c3nc4ccccc4c3cc12`, in the assay with MDA-N, the GI50 is 1.19 µM; the TGI was 2.39 µM and 3.99 µM.
For the compound `CC12CC(Sc3ccccc3N1)c1ccccc1O2` (stereo unspecified), the TGI with DLD-1 colon is 28.9 µM; in the assay with DMS 114 small cell lung it was 29 µM; in the assay with DMS 273 small cell lung it was 30.2 µM; in the assay on HOP-18 NSCLC, 31.6 µM; in the assay with KM20L2 colon it was 34.6 µM; in the assay on M19-MEL melanoma, 30.9 µM. Further, the TGI stood at 28.4 µM with RXF-631 renal and 30.2 µM in the assay on XF 498 CNS.
As to `Cc1ccc(S(=O)(=O)SCc2ccccc2)cc1`, the TGI was 21.7 µM in the assay on DLD-1 colon; 47.8 µM in the assay with DMS 114 small cell lung; over 69.5 µM in the assay with DMS 273 small cell lung; over 100 µM in the assay on HOP-18 NSCLC; 43.9 µM in the assay with KM20L2 colon; over 77.4 µM in the assay with M19-MEL melanoma. Further, the TGI in the assay on XF 498 CNS amounted to 95.2 µM.
In the case of `O=C(NC(=O)c1cc2cc(Br)cc(Br)c2oc1=O)Oc1ccccc1`, the TGI in the assay on DLD-1 colon, in the assay on DMS 114 small cell lung, in the assay with DMS 273 small cell lung, with HOP-18 NSCLC, with KM20L2 colon and with M19-MEL melanoma was over 100 µM throughout. This compound also yielded a TGI in the assay with XF 498 CNS of over 100 µM.
As for `O=S(=O)(NCCO)c1cc[c]([Sb](=[O])([OH])[OH])cc1`, in the assay on MDA-N, the GI50 was over 100 µM and the TGI was over 100 µM.
Take `Cc1cc(NS(=O)(=O)c2ccc(Nc3c4ccccc4nc4c(C(=O)Nc5ccc(S(=O)(=O)N=C(N)N)cc5)ccc(Cl)c34)cc2)no1`: the TGI with DLD-1 colon was over 100 µM; in the assay with DMS 114 small cell lung, 68.9 µM; in the assay on DMS 273 small cell lung, over 100 µM; in the assay with HOP-18 NSCLC it was over 100 µM; in the assay with KM20L2 colon it was over 100 µM; with M19-MEL melanoma it was over 100 µM. In addition, the TGI with XF 498 CNS was found to be 90.9 µM.
`C[n+]1c(/C=C/c2ccc(/C=N/NC(=O)c3ccc(C(=O)N/N=C/c4ccc(/C=C/c5cn6ccccc6[n+]5C)cc4)cc3)cc2)cn2ccccc21` gave a TGI in the assay with MDA-N of over 100 µM.
`C#C/C=C/CC1OC(C(Br)CC)CC(Br)C2CC1O2` (stereo unspecified) showed a TGI in the assay on MDA-N of over 100 µM.
As for `O=C1c2c(c3c4ccccc4[nH]c3c3[nH]c4ccccc4c23)C(=O)N1Cc1ccccc1`, the TGI in the assay with DLD-1 colon was determined as 15.6 µM; in the assay with DMS 114 small cell lung, 8.92 µM; in the assay on DMS 273 small cell lung it was 6.74 µM; with KM20L2 colon it was 8.57 µM; in the assay on M19-MEL melanoma it was 12.9 µM; in the assay with RXF-631 renal, 6.53 µM.

Values taken from PubChem BioAssay (NCI).
